Test results as given in patent US7083969B2, “Serratia marcescens strain” (Korea Research Institute of Bioscience and Biotechnology, priority 1997, dated 2006).

Tests used:
[1] = Body weight of injected mice in graft versus host experiment (toxicity); assay type: in vivo
Procedure: (§1) A graft versus host reaction was utilized for the in vivo assay of prodigiosin's immunosuppression. The graft versus host reaction enables an assessment of the immune response of T lymphocytes. On the sixth day after transplantation of the T lymphocytes of BDF1 mice different in histocompatibility antigen, the lymphatic nodes were measured for weight, thereby assessing the immune response of T lymphocyte to the grafted heteroantigens. The prodigiosin was peritoneally injected at a dose of 30–100 mg per kg of body weight for five days while cyclophosphamide, as a positive control, was peritoneally injected at a dose of 100 mg/kg for five days. The body weights of the injected mice were measured to compare the toxicity of prodigiosin with that of cyclophosphamide. […] As for the body weight, it was not changed in the mice injected with prodigiosin at an effective concentration.

[2] = Weight ratio of the spleen to the body (toxicity); assay type: in vivo, mice
Procedure: (§2) A T cell-dependent immune response reaction was used to assess the influence of prodigiosin on T lymphocytes in vivo. Test animals were immunized with sheep red blood cells by peritoneal injection. 4 days after the immunization, the number of the antibody producing cells was counted. Prodigiosin was peritoneally injected everyday. Based on the number of the […] cells in the non-treated animals, the influence of prodigiosin on T lymphocytes in vivo was assessed as percentage. Also, the weight ratio of the spleen to the body was measured to assay the toxicity of prodigiosin to the animals. Cyclophosphamide was used as a positive control.

T lymphocytes [3] = assay: T cell-dependent immune response in vivo (antibody producing cells after sheep red blood cell immunization); design: species or system mice; conditions: 100 mg/kg; 4 days after immunization
Source text: (§3) Germ-free test animals, mice BDF1 and B6C3F1, obtained from Genetic Resources Center, Korean Research Institute of Bioscience and Biotechnology in the Korean Institute of Science and Technology, were used for the assay of the immunosuppressive activity of prodigiosin. […] At such concentrations as show no cytotoxic effects, prodigiosin cannot suppress the immune response of B lymphocytes. […] This selective immunosuppression for T lymphocytes is not ascribed to the selective cytotoxicity for T lymphocytes. The same immunosuppression results as in the ex vivo experiments were obtained in in vivo experiments. When T lymphocyte activity was measured by use of a graft versus host reaction and a T cell-dependent antibody producing reaction, the prodigiosin suppressed the immune response, but exerted no toxicity on animals. Therefore, the immunosuppressive activity of the prodigiosin is thought to be attributed to the selective suppression for T lymphocyte activity.
as §2

T lymphocytes [4] = assay: Graft versus host reaction in vivo (lymphatic node weight); design: species or system BDF1 mice; conditions: 100 mg/kg peritoneally for five days; sixth day after transplantation
Source text: as §3, §1

T lymphocytes [5] = conditions: known; cited from earlier work
CD8 T lymphocytes = conditions: known; cited from earlier work

## O=P1(N(CCCl)CCCl)NCCCO1 (centres unmarked) [Cyclophosphamide, reference compound]
[1]; 100 mg/kg peritoneally for five days
  Body weight: 18 g
[1]; at an effective concentration
  body weight change: loss of body weight
[2]; 100 mg/kg
  Wt. Ratio of spleen/body (%): 26%
[2]; at effective concentrations
  toxicity judged by weight ratio of the spleen to the body: very toxic
T lymphocytes [3]
  Immune Response (%): 7%
T lymphocytes [4]
  Wt. (mg) of Lymphatic node: 0.06 mg

## CCCCCCCCCCCc1ccc(/C=C2\N=C(c3ccc[nH]3)C=C2OC)[nH]1 [Prodigiosin 25-C, prodigiosin 25-C]
T lymphocytes [5]
  proliferation of T lymphocytes: suppress
CD8 T lymphocytes
  suppression of CD8 T lymphocytes: suppressed
